The experiment deals with TGFβ signal. Kind of experiment: TGFβ signal inhibitory activity, (SBE)4-Luc reporter in A549 cells (Test Examples 1A and 1B). The class given is cell-based, human. The note with it: Homo sapiens, A549, read-out: TGFβ inhibition rate, %. Summed up:
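Compounds at 3 µM and 10 µM (some 1 µM) were added with 2 ng/ml TGFβ-1 to A549 cells stably expressing an SBE-driven luciferase, then cultured 4 hr. Chemiluminescent luciferase signal gave % inhibition versus TGFβ-alone and no-TGFβ controls.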

Setting [1] is: 3 µM, compounds of Reference Examples (Test Example 1B).
[2] abbreviates: 10 µM, compounds of Reference Examples (Test Example 1B).
[3] abbreviates: test compound 3 µM, TGFβ-1 2 ng/ml, 4 hr, Table 1A.
The mark [4] stands for this setting: test compound 10 µM, TGFβ-1 2 ng/ml, 4 hr, Table 1A.
The mark [5] stands for this setting: test compound 3 µM, Reference Examples, Table 1B.
Where [6] appears, read: test compound 10 µM, Reference Examples, Table 1B.
Where [7] appears, read: test compound 1 µM, TGFβ-1 2 ng/ml, 4 hr, Table 1A.

Like-named read-outs stand apart in the source and are kept apart here.

The values below come from EP1724268A1, “COMPOUND HAVING TGF-BETA INHIBITORY ACTIVITY AND PHARMACEUTICAL COMPOSITION CONTAINING SAME” (KIRIN BEER KABUSHIKI KAISHA, priority 2004, dated 2005).

Turning to `CCCOc1ccc(Oc2ccnc3cc(OC)c(OC)cc23)c(C(C)=O)c1` [Compound r179], under setting [1], the inhibition at 3 µM amounted to 18%. The inhibition at 10 µM under setting [2] amounted to 68%. As to `Cc1cc(Oc2ccnc3cc(O)ccc23)c(-c2ccccn2)nc1C` [Compound 140, 4-(5,6-Dimethyl-[2,2']bipyridinyl-3-yloxy)-quinolin-7-ol], the inhibition at 3 µM under setting [3] amounted to 99%. Under setting [4], the inhibition at 10 µM turned out to be 100%. Regarding `COc1cc2nccc(Oc3cc4c5c(c3C=O)CCCN5CCC4)c2cc1OC` [Compound r28], the inhibition at 3 µM under setting [5] was 0%. Besides, the inhibition at 10 µM under setting [6] came out at 53%. On the same counts, the results for `CC=Cc1ccccc1Oc1ccnc2cc(OC)c(OC)cc12` [Compound r2] are 13% and 88%.

For the compound `COc1cc2c(Oc3cc(C)c(C)nc3-c3ccccc3)ccnc2cc1OCC1CO1` (stereo not shown) [Compound r334], the inhibition at 3 µM under setting [1] is 99%.

On to `COc1cc2nccc(Oc3cc4ccccc4nc3-c3ccc(F)cc3)c2cc1OC` [r285], for which, under setting [1], the inhibition at 3 µM is 65%. Moreover, the inhibition at 10 µM under setting [2] was found to be 100%. Consider `COc1cc2nccc(Oc3cc4cccnc4nc3-c3ccccc3)c2cc1Br` [Compound 132, 3-(6-Bromo-7-methoxy-quinolin-4-yloxy)-2-phenyl-[1,8]naphthyridine], for which, under setting [3], the inhibition at 3 µM came to 98%. Besides, the inhibition at 10 µM under setting [4] is 100%. For `COc1cc2nccc(Oc3cc(C)c(C)nc3-c3ccccn3)c2cc1OC` [Compound r269], under “1 µM, compounds of Reference Examples (Test Example 1B)”, the inhibition at 1 µM worked out at 97%. On to `COc1cc2c(Oc3cc4ccccc4nc3C(C)=O)ccnc2cc1OCCO` [Compound r392], for which the inhibition at 3 µM under setting [1] was 93%. Also, the inhibition at 10 µM under setting [2] stood at 100%.

As for `CCOC(=O)/C=C/c1cc2nccc(Oc3cc4ccccc4nc3C)c2cc1OC` [Compound r413], the inhibition at 3 µM under setting [1] is 31%. Under setting [2], the inhibition at 10 µM came out at 76%. Turning to `CCC(=O)c1ccc(OC)cc1Oc1ccnc2cc(OC)c(OC)cc12` [r44], the inhibition at 3 µM under setting [5] was determined as 97%. Moreover, the inhibition at 10 µM under setting [6] is 100%. On to `COc1cc2nccc(Oc3ccc(C)nc3-c3cccc(C(C)=O)c3)c2cc1OC` [Compound r232], for which, under setting [1], the inhibition at 3 µM was determined as 66%. For the same compound, the inhibition at 10 µM under setting [2] came to 79%.

For the compound `COc1cc2c(Oc3cc4cnccc4nc3C)ccnc2cc1OCc1ccccc1` [Compound r406], under setting [1], the inhibition at 3 µM was 56%. Under setting [2], the inhibition at 10 µM turned out to be 96%. For `COc1cc2nccc(Oc3cc(C)c(C)nc3-c3cccnc3)c2cc1OC` [Compound r270], the inhibition at 3 µM under setting [1] was 100%.

As for `Cc1cc(Oc2ccnc3ccc(-c4ccncc4)cc23)c(-c2ccccn2)nc1C` [Compound 7, 5,6-Dimethyl-3-(6-pyridin-4-yl-quinolin-4-yloxy)-[2,2']bipyridine], the inhibition at 3 µM under setting [3] is 100%. Besides, the inhibition at 10 µM under setting [4] is 100%.

With `C=CCON=C(C)c1cc(C)c(C)cc1Oc1ccnc2cc(OC)c(OC)cc12` [Compound r197], the inhibition at 3 µM under setting [1] was 40%. Moreover, the inhibition at 10 µM under setting [2] was 88%. With `CCc1ccc(Oc2ccnc3ccc(OCc4ccccc4)cc23)c(-c2ncccn2)n1` [Compound 190, 6-Benzyloxy-4-(6-ethyl-2-pyrimidin-2-yl-pyridin-3-yloxy)-quinoline], under setting [3], the inhibition at 3 µM was found to be 100%. In addition, under setting [4], the inhibition at 10 µM stood at 100%. Consider `CCc1ccc(Oc2ccnc3cc(C(N)=O)c(OCc4ccccc4)cc23)c(-c2ncccn2)n1` [Compound 193, 6-Benzyloxy-4-(6-ethyl-2-pyrimidin-2-yl-pyridin-3-yloxy)-quinoline-7-carboxylic acid amide], for which, under setting [3], the inhibition at 3 µM is 80%. Take `Cc1cc(Oc2ccnc3ccc(-c4csc5ccccc45)cc23)c(-c2ccccn2)nc1C` [Compound 164, 3-(6-Benzo[b]thiophen-3-yl-quinolin-4-yloxy)-5,6-dimethyl-[2,2']bipyridine]: the inhibition at 3 µM under setting [3] came out at 75%. Also, the inhibition at 10 µM under setting [4] was 100%. As for `COc1cc2nccc(Oc3ccc(C)cc3C(=O)c3ccc(OCCCl)cc3)c2cc1OC` [Compound r189], under setting [1], the inhibition at 3 µM turned out to be 86%. Further, the inhibition at 10 µM under setting [2] was 100%. On to `CCCCC(=O)c1cc(C)ccc1Oc1ccnc2cc(OC)c(OC)cc12` [Compound r52], for which the inhibition at 3 µM under setting [5] is 97%. Moreover, the inhibition at 10 µM under setting [6] is 100%. The like results for `COc1cc2nccc(Oc3ccc4c(ccn4C)c3)c2cc1OC` [Compound r20, 6,7-Dimethoxy-4-[(1-methyl-5-indolyl)oxy]quinoline] were, in that order, 19% and 69%. `COc1cc2c(Oc3cc4ccccc4nc3C(C)=O)ccnc2cc1OCCN1CCCCC1` [Compound r467]: the inhibition at 3 µM under setting [1] is 100%.

With `Cc1cc(Oc2ncnc3ccsc23)c(-c2ccccn2)nc1C` [Compound 33, 5,6-Dimethyl-3-(thieno[3,2-d]pyrimidin-4-yloxy)-[2,2']bipyridine], the inhibition at 3 µM under setting [3] was found to be 86%. Further, the inhibition at 10 µM under setting [4] was determined as 99%. On the same counts, the results for `COc1cc2c(Oc3cc4cccnc4nc3-c3ccccc3)ccnc2cc1OCCO` [Compound 178, 2-[6-Methoxy-4-(2-phenyl-[1,8]naphthyridin-3-yloxy)-quinolin-7-yloxy]-ethanol] are 100% and 100%. With `COc1cc2nccc(Oc3ccc4ccccc4c3)c2cc1OC` [Compound r17], the inhibition at 3 µM under setting [5] is 15%. The inhibition at 10 µM under setting [6] was found to be 80%. Turning to `FC(F)(F)c1ccc2nccc(Oc3cc4cccnc4nc3-c3ccccc3)c2c1` [Compound 54, 2-Phenyl-3-(6-trifluoromethyl-quinolin-4-yloxy)-[1,8]naphthyridine], the inhibition at 3 µM under setting [3] is 76%. Moreover, the inhibition at 10 µM under setting [4] turned out to be 99%.

Take `COc1cc2c(Oc3cc(C)c(C)nc3-c3ccccc3)ccnc2cc1OCCO` [Compound r333]: under setting [1], the inhibition at 3 µM was found to be 100%. Turning to `COc1cc2nccc(Oc3cc4cccnc4nc3-c3ccc(Cl)cc3)c2cc1OC` [Compound 84, 2-(4-Chloro-phenyl)-3-(6,7-dimethoxy-quinolin-4-yloxy)-[1,8]naphthyridine], the inhibition at 3 µM under setting [3] was 69%. The inhibition at 10 µM under setting [4] stood at 100%. `COc1cc2c(Oc3cc(C)c(C)nc3-c3cccnc3)ccnc2cc1O` [Compound r345]: the inhibition at 3 µM under setting [1] is 61%. The inhibition at 10 µM under setting [2] was found to be 93%. Take `Cc1cc(Oc2ccnc3ccc(-c4cn[nH]c4)cc23)c(-c2ccccn2)nc1C` [Compound 169, 5,6-Dimethyl-3-[6-(1H-pyrazol-4-yl)-quinolin-4-yloxy]-[2,2']bipyridine]: the inhibition at 3 µM under setting [3] was 100%. The inhibition at 10 µM under setting [4] came to 100%. With `CCc1ccc(Oc2ccnc3ccc(OCCOC(=O)[C@@H](N)C(C)C)cc23)c(-c2ncccn2)n1` [Compound 208, 2-[4-(6-Ethyl-2-pyrimidin-2-yl-pyridin-3-yloxy)-quinolin-6-yloxy]-ethyl (S)-2-amino-3-methyl-butanoate], under setting [3], the inhibition at 3 µM was determined as 75%. Take `COc1cc2nccc(Oc3ccc(F)nc3)c2cc1OC` [r205]: the inhibition at 3 µM under setting [1] was 26%. The inhibition at 10 µM under setting [2] came to 57%. `COc1ccc(Oc2ccnc3cc(OC)c(OC)cc23)c(/C=C/c2ccccc2)c1` [Compound r7, 6,7-Dimethoxy-4-{4-methoxy-2-[(E)-2-phenyl-1-ethenyl]phenoxy}quinoline]: the inhibition at 3 µM under setting [5] is 13%. Under setting [6], the inhibition at 10 µM turned out to be 54%. Take `COc1cc2nccc(Oc3ccc(C)nc3C)c2cc1OC` [Compound r209]: the inhibition at 3 µM under setting [1] amounted to 99%. Further, the inhibition at 10 µM under setting [2] was 100%. For `COC(=O)c1cc2ccccc2cc1Oc1ccnc2cc(OC)c(OC)cc12` [Compound r79, Methyl 3-[(6,7-Dimethoxy-4-quinolyl)oxy]naphthalene-2-carboxylate], the inhibition at 3 µM under setting [5] was 97%. The inhibition at 10 µM under setting [6] was determined as 100%.

Consider `CCCCCCCCOc1ccc(C(=O)c2ccccc2)c(Oc2ccnc3cc(OC)c(OC)cc23)c1` [Compound r66], for which the inhibition at 3 µM under setting [5] turned out to be 22%. Also, under setting [6], the inhibition at 10 µM is 86%.

Take `Cc1cc(Oc2ccnc3cc(-c4ccccc4)sc23)c(-c2ccccn2)nc1C` [Compound 29, 5,6-Dimethyl-3-(2-phenyl-thieno[3,2-b]pyridin-7-yloxy)-[2,2']bipyridine]: the inhibition at 1 µM under setting [7] was 89%. The inhibition at 3 µM under setting [3] was determined as 100%. Turning to `COc1cc2c(Oc3ccc(C)cc3C(=O)c3ccccc3)ccnc2cc1OCCCCN1CCC(N2CCCC2)CC1` [Compound r145], the inhibition at 3 µM under setting [5] is 87%. Further, under setting [6], the inhibition at 10 µM amounted to 100%.

Turning to `CCOC(=O)c1ccccc1C(=O)c1ccnc2cc(OC)c(OC)cc12` [Compound r163, Ethyl 2-[(6,7-dimethoxy-4-quinolyl)carbonyl]benzoate], the inhibition at 3 µM under setting [5] was 3%. Besides, the inhibition at 10 µM under setting [6] came out at 67%. As for `COc1cc2nccc(Oc3cc(C)c(C)nc3-c3ncccc3C)c2cc1OC` [r429], the inhibition at 3 µM under setting [1] worked out at 52%. The inhibition at 10 µM under setting [2] worked out at 94%. Regarding `c1ccc(-c2cc3nccc(Oc4cc5cccnc5nc4-c4ccccc4)c3s2)cc1` [Compound 72, 2-Phenyl-3-(2-phenyl-thieno[3,2-b]pyridin-7-yloxy)-[1,8]naphthyridine], the inhibition at 1 µM under setting [7] was determined as 81%. The inhibition at 3 µM under setting [3] was determined as 99%. `COc1cc2nccc(Oc3c(Br)cc(Br)cc3C(=O)Nc3ccc(Br)cc3)c2cc1OC` [Compound r113]: under setting [5], the inhibition at 3 µM is 0%. Also, the inhibition at 10 µM under setting [6] amounted to 96%.
